# Earlier results, collected in patent US20220287964A1, “TOPICAL FORMULATIONS COMPRISING CANNABIDIOL, METHOD OF PREP ARING THE COMPOSITION AND USE THEREOF” (CS Medica A/S, priority 2019, published 2022).
# Details: oral administration, given for comparison; cited from earlier work
compound,measurement,value
"C=C(C)[C@@H]1CCC(C)=C[C@H]1c1c(O)cc(CCCCC)cc1O [cannabidiol, Cannabidiol]",Absorbed through the gastrointestinal passage,less than 10%
